Here are results for two compounds from US20220323412A1, “EXTRACELLULAR VESICLE-FENRETINIDE COMPOSITIONS, EXTRACELLULAR VESICLE-C-KIT INHIBITOR COMPOSITIONS, METHODS OF MAKING AND USES THEREOF” (priority 2020, published 2022).

The conditions of series [1]: DrugBank DB05076; cited from earlier work.
Series [2] has as its system MCF-7 breast cancer cells. In words: CellTiter-Glo Luminescent Cell Viability Assay. It is filed as cell-based, human. On the procedure:
EV-fenretinide was packaged in a manner similar to the protocol described in Example 2. EV-fenretinide was dosed onto MCF-7 breast cancer cells using the exemplary protocol below. Cell viability was measured using the Promega CellTiter-Glo® Luminescent Cell Viability Assay—a method of determining the number of viable cells in culture based on quantitation of the ATP present, an indicator of metabolically active cells.
Protocol steps: • 1. MCF-7 cells were cultured in Dulbecco's Modified Eagle's Medium (DMEM) supplemented with 10% exosome-free fetal bovine serum (FBS) supplemented with penicillin-streptomycin-glutamine (PSG; 100 units/mL penicillin, 100 μg/mL streptomycin and 2 mM L-glutamine) for 1-2 passages. • 2. MCF-7 cells were harvested, washed, counted and resuspended in culture medium (DMEM supplemented with 10% exosome-free FBS and PSG) at 5E5 cells/mL. • 3. The MCF-7 cells were seeded at 5E4 cells in a volume of 100 μL/well of culture medium in a white polystyrene 96-well tissue culture plate and incubated for 18-20 hrs at 37° C./5% CO2 humidified incubator. • 4. After 18-20 hrs of incubation, medium was removed from the wells and replaced with culture medium containing test agents. […] The plate was shaken for two minutes and then left to equilibrate for 10 minutes prior to reading the luminescence on a microplate reader (iD3-Molecular Devices).
For orientation: In ATP-based viability assays light output follows the ATP content of the culture.

A short description of series [3]: CellTiter-Huor Cell Viability Assay. It is filed as cell-based. To be noted: human, ARPE-19 retinal pigment epithelium cells, read-out: cell viability or growth of untreated control. On the procedure:
EV-fenretinide was packaged and purified in a manner similar to the protocol described in Example 1. The extracellular vesicles used for packaging fenretinide was isolated from HEK293-F cells. A human retinal pigment epithelium (RPE) cell line, ARPE-19 (ATCC® CRL-2302™), isolated from normal eyes of an adult […], is treated with fenretinide alone or fenretinide-EV to examine the effect on viability of retinal pigment epithelium cells. ARPE-19 cells plated the night before were treated with fenretinide (resuspended in 100% DMSO) or fenretinide-EV (in PBS) at matched concentration of drug substance (active pharmaceutical ingredient (API)) dosed at either low (0.94 μM) or high (15 μM) fenretinide concentration. After 48 hrs at 37° C. in a humidified 5% CO2 incubator, cell viability is measured using CellTiter-Huor™ Cell Viability Assay (Promega) following the manufacturer's instructions to detect viable cells based on cell membrane integrity using a fluorogenic, cell-permeant, peptide substrate (Gly-Phe-AFC) which is cleaved to a fluorescent signal following entry into intact cells. The plate was read on plate reader at 380-400 nm excitation and —505 nm emission for live-cell fluorescence readout.

Series [4] can be described thus: Retention and biodistribution of fenretinide in eye after intravitreal injection. In kind it is in vivo, brown Norway rat. To be noted: 24-hrs after intravitreal 5 μL per eye; 94.8 uM fenretinide-EV or 90.9 uM fenretinide alone. On the procedure:
Eye biodistribution of fenretinide formulated as 90.9 uM free fenretinide (excipient: 5% Ethanol, 12.5% Solutol-HS 15, 12.5% PEG 300, and 70% PBS) or 94.8 uM fenretinide-EV (in PBS) is administered to each eye of brown Norway rat (6 rats/treatment condition) by intravitreal injection (5 μL per eye). 24-hrs after administration, eyes were enucleated. Individual tissues were collected corresponding to cornea, conjunctiva, lens, vitreous humor, retina, RPE/choroid and sclera and analyzed for fenretinide content. In addition, total fenretinide content in each eye was also determined.

A further series deals with CD-1 IGS mice. In words: Toxicology: serum and blood chemistry, complete blood count. In kind it is in vivo, mouse. On the procedure: Both arms were dosed via intravenous tail-vein injected at 0.23 mg/kg with a 4 mL/kg dose volume. The EV-fenretinide formulation was stored at −80° C. until injection into mice. Blood was collected at 2, 5, 10, 15, 30, 60, 120, 240, and 960 minutes, three mice were sacrificed at each time point, and tissue was collected at 30, 120 and 960 minutes. Spleen, liver, lung, kidney, brain and heart tissues were collected. Fenretinide amount in blood and tissue was measured via LC MS/MS mass spectrometry. Serum and hematology toxicology measurements were collected from the blood samples. Blood urea nitrogen (BUN), creatinine, and alanine aminotransferase were measured from serum.
Fenretinide-EVs and fenretinide-alone formulations were produced and dosed in the animal model as in Example 6. On the terminal blood draw of each animal, 20 μL of whole blood samples were used to measure complete blood count (CBC) on the Veterinary Hematology Analyzer (Hematrue, Heska).

The conditions of series [5]: cited from earlier work.

In general, viability refers to a read-out of living cells in per cent, often relative to untreated cells. Regarding `CC1=C(/C=C/C(C)=C/C=C/C(C)=C/C(=O)Nc2ccc(O)cc2)C(C)(C)CCC1` [Fenretinide, N[4-hydroxyphenyl]retinamide], the logP entry in series [1] is given as “greater than 6”. Moreover, in series [2] (Homo sapiens, MCF7, MCF-7, 40 μM fenretinide, 48 hours), the viability at 40 µM was about 20%. The “effect on cell viability over concentration” value in series [2] (MCF-7, 0.625-40 μM, most notable after about 10 μM) is listed as “dose-dependent cell viability inhibition”. Further, in series [3] (ARPE-19, 0.94 μM fenretinide equivalent), the viability at 48 h, 0.94 μM worked out at 85.5%. In addition, the viability at 48 h, 15 μM in series [3] (ARPE-19, 15 μM fenretinide equivalent) stood at 31%. Besides, the “percentage of fenretinide remaining in eyes” value in series [4] was 7%. Also, the “decrease in PLT (platelet concentration) versus Charles River general levels” value with CD-1 IGS mice (16 hrs after intravenous 0.2288 mg/kg) was 5 fold. Besides, the “adverse effects based on serum and blood chemistry results” value in the series on CD-1 IGS mice (intravenous 0.23 mg/kg) is recorded as “did not exert apparent adverse effects”. In series [5] (water), the “solubility limit in water” value is “about 1.71 μg/mL”.

Turning to `Cc1nc(Nc2ncc(C(=O)Nc3c(C)cccc3Cl)s2)cc(N2CCN(CCO)CC2)n1` [dasatinib], the “solubility in water” value in series [5] (Selleck Chem catalog) is recorded as “insoluble in water”.
